Experiments:
[1] = test system: acute inflammatory response (carrageenan paw edema); assay: Rat carrageenan paw edema assay; type: in vivo; settings: po; for inhibition in vivo at 50 mg/kg: 50 mg/kg peroral, 1 hour prior to carrageenan, edema at 3 hours
Method: The compounds of the invention are tested in the rat carrageenan paw edema assay to determine their ability to inhibit the acute inflammatory response. 140-180 gm male Sprague-Dawley rats, in groups of 6 animals, are injected subcutaneously in the right paw with 0.1 ml of 1% carrageenan at zero time. Mercury plethysmographic readings (ml) of the paw are made at zero time and 3 hours later. Test compounds are suspended or dissolved in 0.5% methylcellulose and given perorally 1 hour prior to carrageenan administration. The increase in paw volume (edema in ml.) produced by the carrageenan is measured. […] Unpaired Student's t-test is used to determine statistical significance.

[2] = test system: LTD4 induced bronchoconstriction; assay: In vivo inhibition of LTD4 induced bronchospasm in guinea pigs (exogenously administered leukotrienes); parameters: species or system guinea pig; settings: Cavia porcellus, 10 minutes before induction of bronchospasm (LTD4)

SMILES | ED50 ([1]; 3 h, read-out: Oral ED50 (95% C.L.)) | inhibition in vivo at 25 mg/kg ([2]; intraduodenal, intraduodenally) | inhibition in vivo at 50 mg/kg [1] | inhibition in vivo at 25 mg/kg ([2]; po, intragastrically) | inhibition in vivo at 10 mg/kg ([2]; po, 10 mg/kg, intragastrically)
COc1ccc2c(c1)c(CC(=O)O)c(C)n2C(=O)c1ccc(Cl)cc1 [Indomethacin, reference compound] | 3.7 mg/kg |  |  |  | 
O=S(=O)(Nc1cccc(OCc2csc(-c3c(F)cccc3F)n2)c1)C(F)(F)F [Example 9D, 1,1,1-Trifluoro-N-[3-[[2-(2,6-difluorophenyl)-4-thiazolyl]methoxy]phenyl]methanesulfonamide] |  | 72% | 37% |  | 
O=S(=O)(Nc1cccc(OCc2csc(-c3cccc(C(F)(F)F)c3)n2)c1)C(F)(F)F [Example 9F, 1,1,1-Trifluoro-N-[3-[[2-(3-trifluoromethylphenyl)-4-thiazolyl]methoxy]phenyl]methanesulfonamide] |  | 50% | 23% |  | 
COc1ccc(-c2nc(COc3cccc(NS(=O)(=O)C(F)(F)F)c3)c(C)o2)cc1 [Example 1, 1,1,1-Trifluoro-N-[3-[[2-(4-methoxyphenyl)-5-methyl-4-oxazolyl]methoxy]phenyl]methanesulfonamide] |  | 24% | 34% |  | 
O=S(=O)(Nc1cccc(OCc2csc(-c3ccc(C(F)(F)F)cc3)n2)c1)C(F)(F)F [Example 9E, 1,1,1-Trifluoro-N-[3-[[2-(4-trifluoromethylphenyl)-4-thiazolyl]methoxy]phenyl]-methanesulfonamide] |  |  | 66% |  | 
O=S(=O)(Nc1cccc(OCc2csc(Cc3ccccc3)n2)c1)C(F)(F)F [Example 9I, 1,1,1-Trifluoro-N-[3-[[2-(benzyl)-4-thiazolyl]methoxy]phenyl]methanesulfonamide] |  | 94% | 22% | 47% | 
O=S(=O)(Nc1cccc(OCc2csc(-c3ccccc3F)n2)c1)C(F)(F)F [Example 9C, 1,1,1-Trifluoro-N-[3-[[2-(2-fluorophenyl)-4-thiazolyl]methoxy]phenyl]methanesulfonamide] |  | 73% | 53% |  | 89%
Cc1oc(-c2ccccc2)nc1COc1cccc(NS(=O)(=O)C(F)(F)F)c1 [Example 2, 1,1,1-Trifluoro-N-[3-[(5-methyl-2-phenyl-4-oxazolyl)methoxy]phenyl]methanesulfonamide] |  | 56% | 18% |  | 
CCN(CC)C(=O)N(C)CC(O)c1cccc(OCc2csc(-c3ccccc3)n2)c1 (stereo not drawn) [Example 6, N,N-Diethyl-N'-[2-hydroxy-2-[3-(2-phenyl-4-thiazolylmethoxy)phenyl]ethyl]-N-methylurea] |  | 47% | 57% |  | 
O=S(=O)(Nc1cccc(OCc2cccc(-c3ccccc3)n2)c1)C(F)(F)F [Example 7, 1,1,1-Trifluoro-N-[3-[(2-phenyl-6-pyridinyl)methoxy]phenyl]methanesulfonamide] |  | 68% |  |  | 
O=S(=O)(Nc1ccccc1OCc1csc(-c2ccccc2)n1)C(F)(F)F [Example 4, 1,1,1-Trifluoro-N-[2-[(2-phenyl-4-thiazolyl)methoxy]phenyl]methanesulfonamide] |  | 10% |  |  | 
c1ccc(-c2nc(COc3cccc(Cc4nnn[nH]4)c3)cs2)cc1 [Example 5, 5-[[3-(2-Phenyl-4-thiazolylmethoxy)phenyl]methyl]-1H-tetrazole] |  | 69% |  |  | 
